Drawing on US20120122843A1, “Compounds and Their Use for Treatment of Amyloid Beta-Related Diseases” (ASTRAZENECA AB, priority 2010, published 2012), this text covers IC50 for 20 molecules.

SMILES strings stand for the structures.

As usually defined, the IC50 is the midpoint of a concentration-inhibition curve.

One assay deals with Notch. In words: Release and translocation of Notch intracellular domain into the nucleus, HEK/AENotch cells (NICD immunostaining, ImageXpress). It counts as cell-based, Human. Conditions: Homo sapiens, 3 μM Lactacystin, 4-6 h incubation, nucleus/cytosol NICD fluorescence ratio. Here is the method: The level of activity of the compounds on release and translocation of Notch intracellular domain into the cell nucleus was tested using the following method:
Compounds were diluted in 100% DMSO and stored at […] prior to use. Human Embryonic Kidney cell line overexpressing Notchl-E-human-myc construct (referred to as HEK/AENotch) were cultured in T75 cm^2 or T225 cm^2 cell culture flasks using Dulbecco's Modified Eagles medium (DMEM) supplemented with […] glucose, Na-pyruvate and GlutaMAX with 10% FBS, 100 U/ml penicillin-streptomycin (PEST) respectively, 1× non-essential amino acids (NEAA), […] Hepes and 100 μg/ml Hygromycin. Cells at about 80% confluence were washed with PBS, detached from the flask bottom using 1× Trypsin/EDTA diluted in PBS, re-suspended in cell media and plated in 384-well plates at about 10000 cells/well, in 25 μL cell media. Optionally, cryo-preserved cells (frozen and stored at −140° C. in 90% cell media and 10% DMSO) were thawed, washed and plated as above. Next the cells were incubated for 15-24 h at 37° C. and 5% CO2, after which cell medium was replaced with fresh medium containing 3 μM Lactacystin and test compound diluted ×200 from prepared compound plate giving 0.5% final DMSO concentration, and the highest compound concentration typically 25 μM. Cells were then incubated 4-6 h with test compound before being fixed, washed and immunostained with NICD antibody (rabbit Notch 1 (C-20)). Image acquisition of cytosolic/membrane and nuclear fluorescence as well as subsequent analysis of the nucleus and cytosolic fluorescence ratio was carried out using ImageXpress. Potential cytotoxic effects of the compounds were usually assayed by analysis of nucleus area or cell number.

In a further assay the test system is Aβ42. In words: Aβ42 release from HEK cells stably expressing APPswe (MSD electrochemiluminescence). The following applies: Homo sapiens, HEK293, HEK cells expressing APPswe; 4-6 h incubation with test compound; Aβ42 secreted to cell medium. The format is cell-based, Human. Here is the method: The level of activity of the compounds on Aβ formation was tested using the following method:
Compounds were diluted in 100% DMSO and stored at […] prior to use. Human Embryonic Kidney (HEK) cell line stably expressing APP with the Swedish mutation (APPswe) were cultured using Dulbecco's Modified Eagles medium (DMEM) supplied with […] glucose, Na-pyruvate and GlutaMAX with 10% FBS, 100 U/ml penicillin-streptomycin (PEST) respectively, 1× non-essential amino acids (NEAA), […] Hepes, 100 μg/ml Zeocine. Cells at about 80% confluence were washed with PBS, detached from culture flasks using 1× Trypsin/EDTA diluted in PBS, re-suspended in cell media and plated in 384-well poly-d-lysine coated cell culture plates at about 10000-15000 cells/well, in 25 μL cell media. Optionally, cryo-preserved cells (frozen and stored at −140° C. in 90% cell media and 10% DMSO) were thawed, washed and plated as above. Next the cells were incubated for 15-24 h at 37° C. and 5% CO2, after which cell medium was changed. Fresh medium containing test compound diluted ×200 from prepared compound plate was added to the cells before further incubation for 4-6 hours at 37° C. and 5% CO2. After incubation with test compound the amount of Aβ peptides, including Aβ42, Aβ40, Aβ39, Aβ38 and Aβ37, as well as total Aβ levels, secreted to cell medium was analyzed using the electrochemiluminescence assay technology from Meso Scale Discovery (MSD), in combination with specific antibodies raised against the different Aβ peptides. Aβ42, Aβ40 and Aβ38 antibodies were purchased from MSD and Aβ37 and Aβ39 were made in house. Total Aβ was measured using a combination of 6E10 and 4G8 anti Aβ antibodies from MSD. Potential cytotoxic effects of the compounds were usually assayed by measuring the ATP content (ViaLight) from cell lysate.

As for `COc1nc(Nc2cc(C)c3c(n2)OC(CC(F)(F)F)CN(C)C3)ccc1-c1cnn(C)c1` (stereo not shown) [Example 2, N-(6-Methoxy-5-(1-methyl-1H-pyrazol-4-yl)pyridin-2-yl)-4,6-dimethyl-2-(2,2,2-trifluoroethyl)-2,3,4,5-tetrahydropyrido[3,2-f][1,4]oxazepin-8-amine], the results for the IC50 in the assay on Notch and in the assay with Aβ42 were 1140 nM and 23 nM, respectively.

For the molecule `COc1nc(Nc2ccc3c(n2)OC(CC(F)(F)F)CN(C)C3)ccc1-c1cnn(C)c1` (stereo not shown) [Example 3, N-(6-Methoxy-5-(1-methyl-1H-pyrazol-4-yl)pyridin-2-yl)-4-methyl-2-(2,2,2-trifluoroethyl)-2,3,4,5-tetrahydropyrido[3,2-f][1,4]oxazepin-8-amine], the IC50 with Notch is > 25000 nM; in the assay with Aβ42 it was 17 nM.

For the molecule `COc1nc(Nc2ccc3c(n2)OC(CC(F)(F)F)CN(C)C3)ccc1-n1cnc(C)c1` (stereo not shown) [Example 6, N-(6-Methoxy-5-(4-methyl-1H-imidazol-1-yl)pyridin-2-yl)-4-methyl-2-(2,2,2-trifluoroethyl)-2,3,4,5-tetrahydropyrido[3,2-f][1,4]oxazepin-8-amine], the IC50 in the assay with Notch was > 7900 nM; with Aβ42 it was 18 nM.

On to `COc1nc(Nc2ccc3c(n2)OC(CC(F)(F)F)CN(C)C3)ccc1-c1cc(C)ncn1` (stereo not shown) [Example 7, [6-Methoxy-5-(6-methyl-pyrimidin-4-yl)-pyridin-2-yl]-[6-methyl-8-(2,2,2-trifluoro-ethyl)-5,6,7,8-tetrahydro-9-oxa-1,6-diaza-benzocyclohepten-2-yl]-amine], for which the IC50 in the assay on Notch is > 25000 nM; with Aβ42, 135 nM.

Take `COc1nc(Nc2ccc3c(n2)OC(CC(F)(F)F)CN(C)C3)ccc1-c1ccnc(C)c1` (stereo not shown) [Example 8, (2-Methoxy-2′-methyl-[3,4′]bipyridinyl-6-yl)-[6-methyl-8-(2,2,2-trifluoro-ethyl)-5,6,7,8-tetrahydro-9-oxa-1,6-diaza-benzocyclohepten-2-yl]-amine]: the half-maximal inhibitory concentration (IC50) in the assay on Notch was 3250 nM; in the assay on Aβ42, 5 nM.

Take `COc1nc(Nc2ccc3c(n2)OC(c2nc(C)cs2)CN(C)C3)ccc1-c1cnn(C)c1` (stereo not shown) [Example 9, N-(6-Methoxy-5-(1-methyl-1H-pyrazol-4-yl)pyridin-2-yl)-4-methyl-2-(4-methylthiazol-2-yl)-2,3,4,5-tetrahydropyrido[3,2-f][1,4]oxazepin-8-amine]: the half-maximal inhibitory concentration (IC50) is > 15800 nM in the assay on Notch and 19 nM in the assay with Aβ42.

As for `COc1nc(Nc2cc(C)c3c(n2)OC(C2CC2)CN(C)C3)ccc1-c1cnn(C)c1` (stereo not shown) [Example 13, 2-Cyclopropyl-N-(6-methoxy-5-(1-methyl-1H-pyrazol-4-yl)pyridin-2-yl)-4,6-dimethyl-2,3,4,5-tetrahydropyrido[3,2-f][1,4]oxazepin-8-amine], the IC50 with Notch is > 5000 nM; with Aβ42, 48 nM.

As to `Cc1cn(-c2ccc(Nc3ccc4c(n3)O[C@H](c3ccccc3)CN(C)C4)nc2)cn1` [Example 14, (R)-4-Methyl-N-(5-(4-methyl-1H-imidazol-1-yl)pyridin-2-yl)-2-phenyl-2,3,4,5-tetrahydropyrido[3,2-f][1,4]oxazepin-8-amine], the IC50 in the assay on Notch is > 50000 nM; with Aβ42, 24 nM.

`Cc1ncn(-c2ccc(Nc3ccc4c(n3)OC(c3cccc(Cl)c3)CN(C)C4)nc2)n1` (stereo not shown) [Example 23, 2-(3-Chlorophenyl)-4-methyl-N-(5-(3-methyl-1H-1,2,4-triazol-1-yl)pyridin-2-yl)-2,3,4,5-tetrahydropyrido[3,2-f][1,4]oxazepin-8-amine]: the values for the IC50 in the assay on Notch and in the assay on Aβ42 were > 2500 nM and 55 nM, respectively.

Turning to `Cc1ncn(-c2ccc(Nc3ccc4c(n3)OC(c3ccc(Cl)cc3)CN(C)C4)nc2)n1` (stereo not shown) [Example 24, 2-(4-Chlorophenyl)-4-methyl-N-(5-(3-methyl-1H-1,2,4-triazol-1-yl)pyridin-2-yl)-2,3,4,5-tetrahydropyrido[3,2-f][1,4]oxazepin-8-amine], the IC50 in the assay with Notch is > 7900 nM; with Aβ42, 81 nM.

For `COc1nc(Nc2ccc3c(n2)OC(c2ncc(C)s2)CN(C)C3)ccc1-c1cnn(C)c1` (stereo not shown) [Example 39, N-(6-Methoxy-5-(1-methyl-1H-pyrazol-4-yl)pyridin-2-yl)-4-methyl-2-(5-methylthiazol-2-yl)-2,3,4,5-tetrahydropyrido[3,2-f][1,4]oxazepin-8-amine], the IC50 in the assay on Notch was > 25000 nM; in the assay with Aβ42, 28 nM.

On to `COc1nc(Nc2ccc3c(n2)OC(c2ncc(C)s2)CN(C)C3)ccc1-n1cnc(C)c1` (stereo not shown) [Example 40, N-(6-Methoxy-5-(4-methyl-1H-imidazol-1-yl)pyridin-2-yl)-4-methyl-2-(5-methylthiazol-2-yl)-2,3,4,5-tetrahydropyrido[3,2-f][1,4]oxazepin-8-amine], for which the half-maximal inhibitory concentration (IC50) in the assay on Notch turned out to be 3640 nM; in the assay with Aβ42, 9 nM.

`COc1nc(Nc2ccc3c(n2)OC(c2ccc(C)cn2)CN(C)C3)ccc1-c1cnn(C)c1` (stereo not shown) [Example 41, N-(6-Methoxy-5-(1-methyl-1H-pyrazol-4-yl)pyridin-2-yl)-4-methyl-2-(5-methylpyridin-2-yl)-2,3,4,5-tetrahydropyrido[3,2-f][1,4]oxazepin-8-amine]: the 50% inhibitory concentration (IC50) was > 25000 nM with Notch and 60 nM in the assay on Aβ42.

On to `COc1nc(Nc2ccc3c(n2)OC(c2cc(C)ccn2)CN(C)C3)ccc1-c1cnn(C)c1` (stereo not shown) [Example 42, N-(6-Methoxy-5-(1-methyl-1H-pyrazol-4-yl)pyridin-2-yl)-4-methyl-2-(4-methylpyridin-2-yl)-2,3,4,5-tetrahydropyrido[3,2-f][1,4]oxazepin-8-amine], for which the values for the IC50 with Notch and with Aβ42 were > 25000 nM and 46 nM, respectively.

In the case of `COc1nc(Nc2ccc3c(n2)OC(CC(F)(F)F)CN(C)C3)ccc1-c1ccnc(C)n1` (stereo not shown) [Example 46, N-[6-Methoxy-5-(2-methylpyrimidin-4-yl)-2-pyridyl]-4-methyl-2-(2,2,2-trifluoroethyl)-3,5-dihydro-2H-pyrido[3,2-f][1,4]oxazepin-8-amine], the IC50 in the assay on Notch is > 25000 nM; in the assay on Aβ42, 33 nM.

In the case of `COc1nc(Nc2ccc3c(n2)OC(CC(F)(F)F)CN(C)C3)ccc1-c1cnc(C)o1` (stereo not shown) [Example 47, N-[6-Methoxy-5-(2-methyloxazol-5-yl)-2-pyridyl]-4-methyl-2-(2,2,2-trifluoroethyl)-3,5-dihydro-2H-pyrido[3,2-f][1,4]oxazepin-8-amine], the figures for the IC50 in the assay with Notch and in the assay on Aβ42 were > 25000 nM and 4 nM, respectively.

As to `Cc1cn(-c2ccc(Nc3ccc4c(n3)OC(CC(F)(F)F)CN(C)C4)nc2C#N)cn1` (stereo not shown) [Example 48], the IC50 was > 25000 nM in the assay with Notch and 61 nM in the assay with Aβ42.

On to `COc1nc(Nc2ccc3c(n2)O[C@H](c2nc(C)cs2)CN(C)C3)c(F)cc1-c1cnn(C)c1` [Example 54, (2S)—N-[3-Fluoro-6-methoxy-5-(1-methylpyrazol-4-yl)-2-pyridyl]-4-methyl-2-(4-methylthiazol-2-yl)-3,5-dihydro-2H-pyrido[3,2-f][1,4]oxazepin-8-amine], for which the IC50 turned out to be 6490 nM with Notch and 18 nM in the assay with Aβ42.

As to `Cc1cn(-c2ccc(Nc3ccc4c(n3)O[C@H](c3nc(C)cs3)CN(C)C4)nc2C#N)cn1` [Example 55, 3-(4-Methylimidazol-1-yl)-6-[[(2S)-4-methyl-2-(4-methylthiazol-2-yl)-3,5-dihydro-2H-pyrido[3,2-f][1,4]oxazepin-8-yl]amino]pyridine-2-carbonitrile], the 50% inhibitory concentration (IC50) in the assay with Notch was > 25000 nM; with Aβ42, 44 nM.

Regarding `COc1nc(Nc2ccc3c(n2)O[C@H](c2ccccc2)CN(C)C3)ccc1-c1cn[nH]c1` [Example 56, (2R)—N-[6-Methoxy-5-(1H-pyrazol-4-yl)-2-pyridyl]-4-methyl-2-phenyl-3,5-dihydro-2H-pyrido[3,2-f][1,4]oxazepin-8-amine], the IC50 with Notch was > 25000 nM; in the assay on Aβ42, 98 nM.
